Assay results from patent US20030083227A1, “Novel combination therapy to treat glaucoma” (priority 1999, published 2003).

Legend:
PE cells [1] = assay: Regulatory volume increase (post-RVD RVI) of PE cells, volumetric measurements; type: cell-based, bovine
Protocol: Volumetric measurements were also performed to confirm that these antiports could function in parallel to transfer solution from the extracellular space into the cells.
Since paired Na^+/H^+ and Cl^−/HCO3^− exchangers were known to contribute to the regulatory volume increase (RVI) in many other cells (Hoffmann, Curr Top Membr Transp 30:125-180 (1987)), the regulatory volume increase in the PE cells was examined. However, the secondary RVI was not observed in the PE cells at room temperature. Consequently, the volumetric experiments were conducted at 34-37° C.
The precise time course of the baseline RVI was variable, so that the data of some experiments were better fit to an exponential expression, and others to a linear expression (filled circles, FIG. 2C). […] Secondary RVI was inhibited either by blocking the Na^+/H^+ antiport with 10 μM dimethylamiloride, or by omitting CO2/HCO3^− from the external solution.
Inhibitors were added at the same time that isotonicity was restored (t=24 min).

mouse IOP [2] = settings: cited from earlier work
mouse IOP [3] = assay: Mouse IOP measured with the Servo-Null Micropipette System (SNMS); type: in vivo; settings: for ΔIOP after base (1st drug): sequential study; for minimally effective droplet concentration: lowering of mouse IOP; for ΔIOP (after 1st drug): vs previous period; for effect on IOP: alone
Protocol: Black Swiss outbred mice of mixed sex, 7 to 9 weeks old and approximately 30 g in weight, were obtained from Taconic, Inc. (Germantown, N.Y.). Animals were housed in accordance with National Institutes of Health recommendations, maintained under a 12-hour light-dark illumination cycle, and allowed unrestricted access to food and water. IOP measurements were performed at the same time of day (2-6 PM) to minimize diurnal effects on IOP. All procedures conformed to the ARVO Statement for the Use of Animals in Ophthalmic and Vision Research.
Before all IOP measurements, mice received general anesthesia in the form of intraperitoneal ketamine (250 mg/kg), supplemented by topical proparacaine HCl (0.5%; Allergan, Hormigueros, Puerto Rico). After reaching a stable plane of anesthesia confirmed by absent response to foot pinch, the mice were secured in a surgical stereotaxic device (David Kopf Instruments, Tujunga, Calif.), with the head positioned to avoid any pressure on the animal that could affect IOP. A heating pad at 37° C. (Delta Phase Isothermal Pad, Braintree Scientific, Braintree, Mass.) maintained body temperature. Topical proparacaine supplemented general anesthesia, and corneal dehydration was prevented by topical normal saline (309 mOsm), as necessary. The ground electrode was placed on the conjunctiva of the same or the contralateral eye, carefully avoiding any pressure on the eye.
IOP was measured with the Servo-Null Micropipette System (SNMS), an electrophysiologic, nonmanometric method of measuring pressure, previously adapted and validated for measuring IOP in the mouse (Avila et al., 2001A). The exploring, 5-μm micropipette was filled with 3 M KCl solution to ensure that the resistance of the fluid within the tip was much lower than that of the extracellular fluid. The resistance to electrical flow through the micropipette was continuously monitored and was dominated by the electrical resistance at the tip.
After entry of the tip into the anterior chamber, the step change in hydrostatic pressure forced aqueous humor into the micropipette, displacing the low-resistance 3-M KCl filling solution from the tip back toward the shank. The resultant increase in electrical resistance generated a signal to a vacuum-pressure pump that produced an equal counter-pressure that maintained the position of the aqueous humor-KCl interface at the tip of the micropipette, and thus sustains the original electrical resistance. This counter-pressure equaled the hydrostatic pressure outside the micropipette tip, in this instance the IOP. […] Before every measurement, the system was calibrated externally against a mercury manometer in the range from 0 to 50 mm Hg at 5- to 10-mm Hg intervals.
The micropipettes were fabricated from borosilicate glass (1.5 mm outer diameter, 0.84 mm inner diameter, WPI) with a puller (Sutter Instruments, San Rafael, Calif.). The tips were beveled to an outer diameter of 5 μm and a 45° angle with a micropipette beveler (Sutter).
Using the SNMS as described above, the micropipette tip was next placed in the drop of proparacaine on the cornea overlying the pupil of the subject, and the output reading from the SNMS was adjusted to zero. The micropipette was then advanced across the cornea (at 20-30° to the optical axis) into the anterior chamber by a cell-penetration positioning system (model LSS 21200; Burleigh Instruments, Inc., Fishers, N.Y.) and a piezoelectric step driver (model PZ100; Burleigh). IOP was monitored after positioning the micropipette tip in the aqueous humor. The baseline IOP in the present study was 14.2±0.4 mm Hg (n=113). In measuring drug-induced changes in IOP, each animal served as its own series control. All pressures after drug application were compared with those just before the drug was added.
To determine an individual IOP reading, the mean±SEM was calculated during a 3- to 5-minute recording period. Numbers of experiments or eyes are indicated by the symbol n. […]

PE cells [4] = assay: Potency of Na+/H+ antiport inhibitors applied to PE cells; type: cell-based; settings: amiloride : EIPA
Protocol: Carbonic anhydrase inhibition reduces the rate of production of H^+ and HCO3^−, which in turn must slow the rate of delivery of H^+ and HCO3^− to all cell sites, including the antiports. […] To reach a 10-mM concentration, it was necessary to solubilize the amiloride in 30% DMSO. […] Thus, at a concentration 10 times higher than EIPA's minimal effective concentration, amiloride had no effect, consistent with the known ratio of the potency of these inhibitors (3.9:0.07 μM, or ˜56) when applied to PE cells.

NHE-1 = settings: cited from earlier work
PE cells [5] = settings: applied to PE cells; cited from earlier work
[6] = single drug, topical 10-μL droplet, 1 mM
[7] = 1st drug 1 mM topical, vs baseline
[8] = single drug, topical 10-μL droplet, 100 μM
[9] = single drug, topical 10-μL droplet, 3 mM

SMILES: O=S(=O)(O)c1cc(N=C=S)ccc1C=Cc1ccc(N=C=S)cc1S(=O)(=O)O [DIDS, 4,4′-diisothiocyanatostilbene-2,2′-disulfonic acid]
- effect on RVI (PE cells [1]; 500 μM, added when isotonicity restored, N=3): did not inhibit the RVI

SMILES: Nc1ncnc2c1ncn2[C@@H]1O[C@H](CO)[C@@H](O)[C@H]1O [adenosine]
- effect on IOP in the contralateral eye (mouse IOP [2]; 100 μM, unilateral topical application): does not alter

SMILES: CCN[C@H]1C[C@H](C)S(=O)(=O)c2sc(S(N)(=O)=O)cc21 [Dorzolamide]
- ΔIOP after base (1st drug) (mouse IOP [3]; 1st drug 55.4 mM (200 μg), series followed by BIIB, n=7): −3.5 ± 0.9 mm Hg
- ΔIOP after base (1st drug) (mouse IOP [3]; 1st drug 55.5 mM (200 μg), series followed by bumetanide, n=4): −2.0 ± 0.4 mm Hg
- ΔIOP (mouse IOP [3]; single drug, topical 10-μL droplet, 55.4 mM (200 μg)): −2.9 ± 0.6 mm Hg
- ΔIOP (mouse IOP [3]; single drug, topical 10-μL droplet, 55.4 mM (200 μg), listed as dorzolamide): reduces IOP

SMILES: N=C(N)NC(=O)c1nc(Cl)c(N)nc1N [amiloride]
- ΔIOP (mouse IOP [3]; 10 mM in 30% DMSO, after pretreatment with vehicle containing 30% DMSO, n=4): 1.0±0.7 mm Hg
- ΔIOP (mouse IOP [3]; [6]): no significant effect on mouse IOP
- ratio of the potency of these inhibitors (PE cells [4]): ~56
- potency at NHE-1 antiports lower than the amiloride analogues DMA and EIPA (NHE-1; Counillon et al., 2000): 1 to 2 orders of magnitude
- potency (PE cells [5]): 3900 nM

SMILES: CN(C)c1nc(N)c(C(=O)N=C(N)N)nc1Cl [DMA, dimethylamiloride]
- ΔIOP after base (1st drug) (mouse IOP [3]; [7]): −4.0 ± 0.8 mm Hg
- ΔIOP (mouse IOP [3]; [8]): +0.9 ± 0.9 mm Hg
- ΔIOP (mouse IOP [3]; [9]): −5.0 ± 0.7 mm Hg
- reduction of IOP of the treated eye (mouse IOP [3]; single drug, topical, 1 mM): 3.8±0.5 mm Hg
- lowering of IOP (mouse IOP [3]; single drug, topical, 3 mM): 5.0±0.7 mm Hg
- minimally effective droplet concentration (mouse IOP [3]; topical): 1 mM
- effect on secondary RVI (PE cells [1]; 10 μM, 34-37° C.): inhibited

SMILES: CCN(c1nc(N)c(C(=O)NC(=N)N)nc1Cl)C(C)C [EIPA, ethylisopropylamiloride]
- ΔIOP after base (1st drug) (mouse IOP [3]; [7]): −2.4 ± 0.6 mm Hg
- ΔIOP (mouse IOP [3]; [8]): +0.8 ± 0.2 mm Hg
- ΔIOP (mouse IOP [3]; [6]): −2.6 ± 0.5 mm Hg
- ΔIOP (mouse IOP [3]; [9]): −4.1 ± 1.0 mm Hg
- lowering of IOP (mouse IOP [3]; single drug, topical, 3 mM): 4.1±1.0 mm Hg
- minimally effective droplet concentration (mouse IOP [3]; topical): 1 mM
- IC50 (NHE-1; Scholz et al. 1995): 50 nM
- potency (PE cells [5]): 70 nM

SMILES: CC(=O)Nc1nnc(S(N)(=O)=O)s1 [acetazolamide]
- lowering of mouse IOP (mouse IOP [2]; intraperitoneal): 11.9±1.3 mm Hg

SMILES: CCCCNc1cc(C(=O)O)cc(S(N)(=O)=O)c1Oc1ccccc1 [Bumetanide]
- change in IOP (mouse IOP [3]; 10 mM alone, 4 mice): −1.0±1.1 mm Hg
- reduction of IOP (mouse IOP [3]; 10 mM bumetanide after topical ethylisopropyl-amiloride, N=6): 4.0±0.6 mm Hg
- ΔIOP (after 1st drug) (mouse IOP [3]; 2nd drug 10 mM (36.4 μg) after 1 mM BIIB): −3.9 ± 0.9 mm Hg
- ΔIOP (after 1st drug) (mouse IOP [3]; 2nd drug 10 mM (36.4 μg) after 1 mM DMA): −3.8 ± 0.7 mm Hg
- ΔIOP (after 1st drug) (mouse IOP [3]; 2nd drug 10 mM (36.4 μg) after 1 mM EIPA): −4.0 ± 0.6 mm Hg
- ΔIOP (after 1st drug) (mouse IOP [3]; 2nd drug 10 mM (36.4 μg) after 55.5 mM dorzolamide): −3.9 ± 1.0 mm Hg
- effect on IOP (mouse IOP [3]; N=8, 10 uM-10 mM concentrations in topical drops): had no significant effect on IOP
- effect on IOP (mouse IOP [3]; droplet concentrations of 0.1 to 10 mM (364 ng to 36.4 μg)): had no significant effect on IOP
- ΔIOP (mouse IOP [3]; [8]): −0.8 ± 0.7 mm Hg
- ΔIOP (mouse IOP [3]; [6]): −0.7 ± 1.6 mm Hg
- ΔIOP (mouse IOP [3]; single drug, topical 10-μL droplet, 10 mM): −1.2 ± 0.6 mm Hg
- effect on RVI (PE cells [1]; 10 μM, added when isotonicity restored, N=9): did not inhibit the RVI
- effect on RVI (PE cells [1]; alone, in the nominal absence of CO2/HCO3−, P<0.01): substantially inhibited the RVI
